Reference: ChEMBL document CHEMBL1201862, “PubChem BioAssay data set” (2004)
Active and inactive are the calls of the source.

How the values were obtained:
Beta-galactosidase [1] = molecular target: T1, Beta-galactosidase (Escherichia coli, UniProt Q8VNN2); experiment: PubChem AID 485352; format: functional
[2] = Trypanosoma cruzi growth suppression in host cells – NIH3T3 host cells, beta-gal luminescence, confirmation (AID 2044); format: functional, cell-based;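 note: intracellular parasites grown in NIH/3T3 mouse fibroblasts as host cells; luminescent beta-galactosidase reporter signal from transgenic T. cruzi replicating inside host cells; inhibitors lower the luminescence signal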
[3] = molecular target: T2, Type-1 angiotensin II receptor (Homo sapiens, UniProt P30556); experiment: antagonism of angiotensin II type 1 receptor – cell-based, uHTS hits, selectivity assay for APJ receptor antagonist project, dose response (AID 463214); format: functional;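 note: antagonist potency against angiotensin II stimulated AT1 response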
T2 sequence (P30556 whole entry): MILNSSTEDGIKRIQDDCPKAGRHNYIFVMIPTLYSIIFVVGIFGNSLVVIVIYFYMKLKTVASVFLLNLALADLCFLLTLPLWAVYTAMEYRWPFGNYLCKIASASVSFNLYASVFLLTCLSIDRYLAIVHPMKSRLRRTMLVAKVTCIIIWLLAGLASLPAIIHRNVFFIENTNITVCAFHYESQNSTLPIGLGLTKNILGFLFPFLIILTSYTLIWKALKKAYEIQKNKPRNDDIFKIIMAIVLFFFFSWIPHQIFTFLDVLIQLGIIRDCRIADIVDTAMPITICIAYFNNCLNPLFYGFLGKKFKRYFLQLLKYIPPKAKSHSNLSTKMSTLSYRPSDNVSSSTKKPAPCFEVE

[4] = molecular target: T3, Kappa-type opioid receptor (Homo sapiens, UniProt P41145); format: functional
T3 sequence (P41145 whole entry): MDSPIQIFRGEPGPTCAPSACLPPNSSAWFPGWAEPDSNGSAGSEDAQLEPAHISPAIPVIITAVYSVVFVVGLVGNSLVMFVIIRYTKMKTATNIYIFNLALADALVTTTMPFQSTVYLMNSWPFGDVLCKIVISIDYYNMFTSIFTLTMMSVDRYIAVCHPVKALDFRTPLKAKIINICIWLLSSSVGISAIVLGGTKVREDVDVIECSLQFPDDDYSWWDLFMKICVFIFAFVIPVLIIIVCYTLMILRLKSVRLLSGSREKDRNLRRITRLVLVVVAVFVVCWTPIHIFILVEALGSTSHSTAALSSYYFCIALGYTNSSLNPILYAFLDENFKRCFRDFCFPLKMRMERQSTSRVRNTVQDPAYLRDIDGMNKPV

[5] = NIH3T3 cell viability loss – ATP luminescence, mouse fibroblasts, counter-screen, dose response (AID 2010); format: functional, cell-based;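 note: cells exposed to compound for about 90 hours before reading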
Beta-galactosidase [6] = molecular target: T1, Beta-galactosidase; format: functional
[7] = molecular target: T3, Kappa-type opioid receptor; format: functional; remark: listed apart in the source
Hexokinase HKDC1 = molecular target: T4, Hexokinase HKDC1 (Homo sapiens, UniProt Q2TB90); experiment: activation of HKDC1 glucose phosphorylation – biochemical, W721R variant, dose response (AID 504730); format: functional
T4 sequence (Q2TB90 whole entry): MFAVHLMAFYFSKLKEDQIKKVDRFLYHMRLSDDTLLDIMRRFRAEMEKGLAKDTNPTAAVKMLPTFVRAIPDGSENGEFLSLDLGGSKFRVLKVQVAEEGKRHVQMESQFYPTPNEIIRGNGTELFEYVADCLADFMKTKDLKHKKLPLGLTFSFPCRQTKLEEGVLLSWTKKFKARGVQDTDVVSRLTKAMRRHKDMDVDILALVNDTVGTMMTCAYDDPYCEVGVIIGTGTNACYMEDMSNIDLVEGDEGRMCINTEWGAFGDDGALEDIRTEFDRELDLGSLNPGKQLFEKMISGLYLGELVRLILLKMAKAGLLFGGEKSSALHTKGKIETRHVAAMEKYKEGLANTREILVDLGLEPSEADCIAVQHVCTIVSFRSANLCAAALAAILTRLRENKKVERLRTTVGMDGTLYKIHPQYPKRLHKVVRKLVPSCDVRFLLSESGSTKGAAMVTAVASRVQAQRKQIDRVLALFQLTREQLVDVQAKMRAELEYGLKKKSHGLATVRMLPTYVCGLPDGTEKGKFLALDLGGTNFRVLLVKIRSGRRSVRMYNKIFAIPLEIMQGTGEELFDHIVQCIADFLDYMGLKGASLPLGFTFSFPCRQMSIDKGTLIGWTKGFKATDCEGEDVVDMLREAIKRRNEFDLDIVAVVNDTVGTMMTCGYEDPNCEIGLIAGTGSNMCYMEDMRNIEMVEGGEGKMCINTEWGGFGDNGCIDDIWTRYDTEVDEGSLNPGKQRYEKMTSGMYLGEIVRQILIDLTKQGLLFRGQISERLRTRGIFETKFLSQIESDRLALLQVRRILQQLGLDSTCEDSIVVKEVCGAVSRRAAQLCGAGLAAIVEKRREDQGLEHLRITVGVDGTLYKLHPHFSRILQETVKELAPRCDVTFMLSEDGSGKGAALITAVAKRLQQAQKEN

Hexokinase-1 = Hexokinase-1 (Homo sapiens, UniProt P19367); experiment: HK1 enzyme activation by HKDC1 hits – biochemical, selectivity assay for HKDC1 activator project, dose response (AID 504762); format: functional
Sequence of Hexokinase-1 (P19367 whole entry): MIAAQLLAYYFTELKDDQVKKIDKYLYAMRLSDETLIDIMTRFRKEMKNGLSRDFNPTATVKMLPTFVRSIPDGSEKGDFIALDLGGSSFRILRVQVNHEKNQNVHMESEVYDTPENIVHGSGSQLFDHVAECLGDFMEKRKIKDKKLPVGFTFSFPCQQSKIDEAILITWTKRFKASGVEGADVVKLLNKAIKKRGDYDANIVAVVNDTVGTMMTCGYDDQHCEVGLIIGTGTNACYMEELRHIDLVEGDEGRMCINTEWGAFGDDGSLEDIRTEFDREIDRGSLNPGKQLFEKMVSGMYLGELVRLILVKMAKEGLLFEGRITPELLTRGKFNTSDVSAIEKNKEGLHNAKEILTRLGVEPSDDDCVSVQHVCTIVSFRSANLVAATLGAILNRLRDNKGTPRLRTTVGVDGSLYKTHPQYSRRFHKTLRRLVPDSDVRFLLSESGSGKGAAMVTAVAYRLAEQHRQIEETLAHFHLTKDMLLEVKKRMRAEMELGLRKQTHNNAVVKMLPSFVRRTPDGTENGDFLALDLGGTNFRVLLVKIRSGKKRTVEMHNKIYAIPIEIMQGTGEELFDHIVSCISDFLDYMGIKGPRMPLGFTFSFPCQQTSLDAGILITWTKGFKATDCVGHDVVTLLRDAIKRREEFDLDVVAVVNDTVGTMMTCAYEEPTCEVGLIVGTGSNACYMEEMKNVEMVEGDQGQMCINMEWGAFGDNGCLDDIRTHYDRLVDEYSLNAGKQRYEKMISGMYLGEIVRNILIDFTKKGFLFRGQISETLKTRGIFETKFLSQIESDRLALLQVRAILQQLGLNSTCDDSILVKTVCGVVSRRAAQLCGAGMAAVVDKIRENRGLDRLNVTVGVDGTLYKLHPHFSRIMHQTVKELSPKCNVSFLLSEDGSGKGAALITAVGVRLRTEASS

[8] = molecular target: 26S proteasome non-ATPase regulatory subunit 14 (Homo sapiens, UniProt O00487); experiment: inhibition of proteasome subunit RPN11 – biochemical, fluorescence polarization, uHTS hits, confirmation (AID 602368); format: functional
[9] = molecular target: 72 kDa type IV collagenase (Homo sapiens, UniProt P08253); experiment: Dose Response validation of uHTS RPN11 inhibitor hits using a MMP-2 Fluorescence assay.; format: functional
Prothrombin = Prothrombin (Bos taurus, UniProt P00735); experiment: thrombin protease inhibitors – biochemical, fluorescence polarization, uHTS hits, dose response (AID 602369); format: functional
Protein Wnt-3a = Protein Wnt-3a (Mus musculus, UniProt P27467); experiment: antagonism of Wnt3a pathway luciferase reporter – Wnt-LIGHT cells, luminescence, selectivity assay for Gli-SUFU antagonist project, dose response (AID 651570); format: functional; conditions: read-out: IC50_Mean;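 note: Wnt-LIGHT reporter cells stimulated with conditioned medium from Wnt3a-producing cells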
Ephrin type-A receptor 4 = Ephrin type-A receptor 4 (Mus musculus, UniProt Q03137); experiment: EphA4 ligand-binding antagonists – biochemical, colorimetric, mouse EphA4, primary screen (AID 689); format: functional
Sequence of Ephrin type-A receptor 4 (Q03137 whole entry): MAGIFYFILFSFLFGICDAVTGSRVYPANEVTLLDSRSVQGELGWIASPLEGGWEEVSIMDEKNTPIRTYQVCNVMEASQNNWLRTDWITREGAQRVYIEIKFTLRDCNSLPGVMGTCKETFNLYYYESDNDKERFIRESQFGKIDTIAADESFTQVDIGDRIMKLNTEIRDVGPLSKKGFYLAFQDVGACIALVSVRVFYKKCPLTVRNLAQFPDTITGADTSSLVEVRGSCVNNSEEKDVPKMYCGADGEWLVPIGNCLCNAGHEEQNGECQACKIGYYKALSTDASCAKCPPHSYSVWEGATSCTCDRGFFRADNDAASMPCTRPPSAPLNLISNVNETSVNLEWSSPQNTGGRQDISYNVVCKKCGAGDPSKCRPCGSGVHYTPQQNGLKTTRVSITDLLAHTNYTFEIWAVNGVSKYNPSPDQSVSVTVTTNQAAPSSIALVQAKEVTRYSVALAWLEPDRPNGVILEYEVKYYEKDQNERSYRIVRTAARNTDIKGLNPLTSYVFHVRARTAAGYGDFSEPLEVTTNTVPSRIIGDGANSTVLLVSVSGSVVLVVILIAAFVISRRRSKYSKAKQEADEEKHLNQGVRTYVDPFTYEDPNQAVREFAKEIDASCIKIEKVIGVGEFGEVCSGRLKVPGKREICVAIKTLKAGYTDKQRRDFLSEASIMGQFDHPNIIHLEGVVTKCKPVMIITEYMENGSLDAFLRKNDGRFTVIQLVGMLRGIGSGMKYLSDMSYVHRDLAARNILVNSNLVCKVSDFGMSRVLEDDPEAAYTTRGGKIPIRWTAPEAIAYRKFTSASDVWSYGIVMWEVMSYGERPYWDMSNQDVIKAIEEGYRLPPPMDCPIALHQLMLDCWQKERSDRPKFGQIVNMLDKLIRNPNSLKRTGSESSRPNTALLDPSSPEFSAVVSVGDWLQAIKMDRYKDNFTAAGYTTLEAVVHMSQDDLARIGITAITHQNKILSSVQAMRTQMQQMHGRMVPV

Trypsin = Trypsin (Sus scrofa, UniProt P00761); experiment: trypsin protease activity blockade – biochemical, quenched peptide fluorescence, cherry-pick, selectivity assay for Rce1 protease inhibitor project, dose response (AID 488789)
CAAX prenyl protease 2 = molecular target: T5, CAAX prenyl protease 2 (Saccharomyces cerevisiae S288c, UniProt Q03530); format: biochemical
T5 sequence (Q03530 whole entry): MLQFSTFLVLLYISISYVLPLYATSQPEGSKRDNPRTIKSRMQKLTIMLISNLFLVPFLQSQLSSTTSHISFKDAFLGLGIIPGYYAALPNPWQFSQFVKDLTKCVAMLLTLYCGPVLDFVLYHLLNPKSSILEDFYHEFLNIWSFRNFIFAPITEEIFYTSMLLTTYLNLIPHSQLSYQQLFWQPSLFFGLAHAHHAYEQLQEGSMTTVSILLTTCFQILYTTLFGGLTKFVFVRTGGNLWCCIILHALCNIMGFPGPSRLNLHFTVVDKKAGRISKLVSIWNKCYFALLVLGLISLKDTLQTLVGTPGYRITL

CAAX prenyl protease 1 = CAAX prenyl protease 1 (Saccharomyces cerevisiae S288c, UniProt P47154); experiment: yeast CAAX protease Ste24 inhibition – biochemical, S. cerevisiae, plate reader, cherry-pick, dose response (AID 488815)
[10] = molecular target: Sphingosine 1-phosphate receptor 4 (Homo sapiens, UniProt O95977); experiment: Late-stage fluorescence dose response cell-based assay to identify agonists of the Sphingosine 1-Phosphate Receptor 4 (S1P4): purchased compounds EC50. [Related pubchem assays (depositor defined):AID1509, AID1523, AID1563, AID1686, AID1701, AID1801]; format: functional
[11] = molecular target: 1-acylglycerol-3-phosphate O-acyltransferase ABHD5/Perilipin-5 (Homo sapiens, UniProt Q00G26+Q8WTS1); experiment: Luminescence-based biochemical high throughput dose response assay for inhibitors of the interaction of the lipase co-activator protein, abhydrolase domain containing 5 (ABHD5) with perilipin-5 (MLDP; PLIN5) (2K validation set). [Related pubchem assays (depositor defined):AID493035, AID493241]
Sequence of 1-acylglycerol-3-phosphate O-acyltransferase ABHD5/Perilipin-5 (Q00G26 whole entry, the tested form may be a part): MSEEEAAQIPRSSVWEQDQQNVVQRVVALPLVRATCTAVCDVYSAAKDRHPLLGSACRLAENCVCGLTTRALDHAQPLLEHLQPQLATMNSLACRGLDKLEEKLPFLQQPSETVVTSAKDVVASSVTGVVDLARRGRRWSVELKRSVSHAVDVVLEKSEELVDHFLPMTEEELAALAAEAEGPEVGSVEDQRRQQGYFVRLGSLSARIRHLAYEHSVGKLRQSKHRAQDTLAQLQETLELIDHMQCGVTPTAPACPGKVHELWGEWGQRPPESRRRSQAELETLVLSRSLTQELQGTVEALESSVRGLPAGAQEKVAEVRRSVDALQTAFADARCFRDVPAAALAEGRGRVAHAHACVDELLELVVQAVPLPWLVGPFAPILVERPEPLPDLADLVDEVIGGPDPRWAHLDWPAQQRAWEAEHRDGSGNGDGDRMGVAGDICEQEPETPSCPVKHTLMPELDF
Sequence of 1-acylglycerol-3-phosphate O-acyltransferase ABHD5/Perilipin-5 (Q8WTS1 whole entry, the tested form may be a part): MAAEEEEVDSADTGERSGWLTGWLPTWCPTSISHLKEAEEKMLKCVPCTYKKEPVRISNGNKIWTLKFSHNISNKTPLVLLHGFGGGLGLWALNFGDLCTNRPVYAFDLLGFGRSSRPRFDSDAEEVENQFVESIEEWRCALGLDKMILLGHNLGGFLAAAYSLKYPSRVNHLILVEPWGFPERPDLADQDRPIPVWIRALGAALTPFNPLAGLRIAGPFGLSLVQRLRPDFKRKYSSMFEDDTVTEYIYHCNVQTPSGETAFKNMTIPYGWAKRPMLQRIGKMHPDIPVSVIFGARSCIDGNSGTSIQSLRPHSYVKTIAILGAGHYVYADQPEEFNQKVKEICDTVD

Perilipin-1/ABHD5 = Perilipin-1/ABHD5 (Homo sapiens, UniProt O60240+Q8WTS1); experiment: Luminescence-based biochemical high throughput dose response assay for inhibitors of the interaction of the lipase co-activator protein, abhydrolase domain containing 5 (ABHD5) with perilipin-1 (PLIN1) (2K validation set). [Related pubchem assays (depositor defined):AID493027, AID493057]
Sequence of Perilipin-1/ABHD5 (Q8WTS1 whole entry, the tested form may be a part): as above
Sequence of Perilipin-1/ABHD5 (O60240 whole entry, the tested form may be a part): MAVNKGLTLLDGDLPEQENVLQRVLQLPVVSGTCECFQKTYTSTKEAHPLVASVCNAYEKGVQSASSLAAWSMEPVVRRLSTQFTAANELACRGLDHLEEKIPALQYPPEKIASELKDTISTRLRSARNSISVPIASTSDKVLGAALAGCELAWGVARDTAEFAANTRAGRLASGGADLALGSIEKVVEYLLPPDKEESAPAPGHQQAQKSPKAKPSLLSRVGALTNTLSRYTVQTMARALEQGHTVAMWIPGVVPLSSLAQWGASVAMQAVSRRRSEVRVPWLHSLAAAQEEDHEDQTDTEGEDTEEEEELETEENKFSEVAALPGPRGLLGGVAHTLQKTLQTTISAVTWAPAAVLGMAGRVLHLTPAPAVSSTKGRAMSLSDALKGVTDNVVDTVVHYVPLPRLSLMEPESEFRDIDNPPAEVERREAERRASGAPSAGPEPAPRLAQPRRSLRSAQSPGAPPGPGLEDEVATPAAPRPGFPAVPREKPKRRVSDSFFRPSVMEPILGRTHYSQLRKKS

[12] = molecular target: T6, Mannose-6-phosphate isomerase (Homo sapiens, UniProt P34949); experiment: phosphomannose isomerase inhibition – biochemical, fluorescence intensity, confirmation (AID 1535)
T6 sequence (P34949 whole entry): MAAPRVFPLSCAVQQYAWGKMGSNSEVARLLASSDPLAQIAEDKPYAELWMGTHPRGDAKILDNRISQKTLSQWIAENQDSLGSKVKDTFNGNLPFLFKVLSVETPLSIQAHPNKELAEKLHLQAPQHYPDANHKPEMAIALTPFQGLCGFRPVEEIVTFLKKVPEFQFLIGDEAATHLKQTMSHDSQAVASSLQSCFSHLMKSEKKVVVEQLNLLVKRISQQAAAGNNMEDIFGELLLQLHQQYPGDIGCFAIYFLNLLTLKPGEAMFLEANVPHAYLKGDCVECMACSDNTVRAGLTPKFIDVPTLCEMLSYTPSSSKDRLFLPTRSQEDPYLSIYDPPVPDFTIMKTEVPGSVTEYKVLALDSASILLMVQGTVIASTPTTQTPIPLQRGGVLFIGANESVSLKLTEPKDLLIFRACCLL

Phosphomannomutase 2 = Phosphomannomutase 2 (Homo sapiens, UniProt O15305); experiment: Counter screen SAR assay for PMM2 inhibitors via a fluorescence intensity assay. [Related pubchem assays (depositor defined):AID1545, AID1574]
[13] = molecular target: Phosphoethanolamine/phosphocholine phosphatase (Homo sapiens, UniProt Q8TCT1); experiment: SAR assay for compounds that inhibit PHOSPHO1. [Related pubchem assays (depositor defined):AID1545, AID1565, AID1574]
Sequence of Phosphoethanolamine/phosphocholine phosphatase (Q8TCT1 whole entry): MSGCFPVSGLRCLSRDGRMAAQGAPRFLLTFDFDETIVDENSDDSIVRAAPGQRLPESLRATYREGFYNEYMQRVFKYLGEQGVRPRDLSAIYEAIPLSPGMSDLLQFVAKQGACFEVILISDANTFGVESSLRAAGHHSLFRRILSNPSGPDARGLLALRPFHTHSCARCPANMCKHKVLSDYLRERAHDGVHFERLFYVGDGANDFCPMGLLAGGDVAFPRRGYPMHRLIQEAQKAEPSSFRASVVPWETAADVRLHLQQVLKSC

[14] = molecular target: T7, Tyrosine-protein phosphatase non-receptor type 7 (Homo sapiens, UniProt P35236); experiment: SAR analysis of chemical inhibitors of HePTP using a Fluorescent assay - Set 2. [Related pubchem assays (depositor defined):AID1059, AID1077, AID1661, AID2085, AID521]; format: functional
T7 sequence (P35236 whole entry): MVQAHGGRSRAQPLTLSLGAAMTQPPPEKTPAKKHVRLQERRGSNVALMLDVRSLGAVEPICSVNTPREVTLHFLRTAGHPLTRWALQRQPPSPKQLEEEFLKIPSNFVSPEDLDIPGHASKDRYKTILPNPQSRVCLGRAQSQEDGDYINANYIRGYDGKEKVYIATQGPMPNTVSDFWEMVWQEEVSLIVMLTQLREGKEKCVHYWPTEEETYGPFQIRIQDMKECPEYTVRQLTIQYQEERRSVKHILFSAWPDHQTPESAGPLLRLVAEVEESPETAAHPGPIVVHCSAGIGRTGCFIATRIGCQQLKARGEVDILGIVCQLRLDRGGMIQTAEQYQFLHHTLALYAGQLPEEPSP

[15] = molecular target: Dual specificity protein phosphatase 3 (Homo sapiens, UniProt P51452); experiment: SAR VHR1 Fluorescent Assay for In Vitro dose response studies Set 2. [Related pubchem assays (depositor defined):AID1654, AID1661, AID1878]; format: functional

T1 sequence (Q8VNN2 whole entry): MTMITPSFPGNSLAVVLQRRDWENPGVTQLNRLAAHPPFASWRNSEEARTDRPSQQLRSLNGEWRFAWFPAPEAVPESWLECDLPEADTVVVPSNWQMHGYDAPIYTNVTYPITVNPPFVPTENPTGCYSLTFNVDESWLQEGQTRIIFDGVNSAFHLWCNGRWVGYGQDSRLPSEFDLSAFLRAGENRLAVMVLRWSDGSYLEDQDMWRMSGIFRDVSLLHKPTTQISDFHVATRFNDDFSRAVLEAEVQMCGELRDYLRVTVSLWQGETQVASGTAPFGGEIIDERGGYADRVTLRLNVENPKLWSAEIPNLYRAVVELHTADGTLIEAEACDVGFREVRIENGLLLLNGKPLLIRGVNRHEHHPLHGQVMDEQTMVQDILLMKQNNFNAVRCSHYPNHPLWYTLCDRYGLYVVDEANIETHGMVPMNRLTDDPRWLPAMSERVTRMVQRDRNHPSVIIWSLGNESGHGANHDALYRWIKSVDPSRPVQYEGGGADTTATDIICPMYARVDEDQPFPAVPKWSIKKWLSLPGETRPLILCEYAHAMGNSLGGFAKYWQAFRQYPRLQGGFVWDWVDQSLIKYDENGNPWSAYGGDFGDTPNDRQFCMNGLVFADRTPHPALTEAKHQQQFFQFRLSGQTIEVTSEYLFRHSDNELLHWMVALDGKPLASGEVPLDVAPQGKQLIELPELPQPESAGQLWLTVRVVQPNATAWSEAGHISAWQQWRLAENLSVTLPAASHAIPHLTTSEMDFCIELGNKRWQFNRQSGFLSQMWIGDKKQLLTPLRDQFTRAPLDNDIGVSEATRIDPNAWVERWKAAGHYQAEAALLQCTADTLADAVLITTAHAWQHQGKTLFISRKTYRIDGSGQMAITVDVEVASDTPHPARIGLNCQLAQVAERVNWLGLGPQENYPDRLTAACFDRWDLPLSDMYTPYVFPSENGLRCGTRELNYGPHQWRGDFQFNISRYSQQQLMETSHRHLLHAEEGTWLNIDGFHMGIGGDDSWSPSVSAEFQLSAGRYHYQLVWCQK

Question: Which EC50 (Beta-galactosidase [1]) does the source give for `CC(=O)/C(=N\Nc1ccc(Cl)cc1Cl)Sc1cccc2cccnc12` here?
Answer: > 40 µM (inactive)

Question: What about the EC50 [2] of the same molecule?
Answer: 0.289 µM (active)

Question: What about the IC50 [3] of the same molecule?
Answer: 10.6 µM (active)

Question: What about the IC50 [4] of the same molecule?
Answer: 9.32 µM (active)

Question: What about the EC50 [5] of the same molecule?
Answer: 26.7 µM (active)

Question: What about the EC50 (Beta-galactosidase [6]) of the same molecule?
Answer: > 31.5 µM (inactive)

Question: What about the IC50 [7] of the same molecule?
Answer: > 32 µM

Question: What about the EC50 (Hexokinase HKDC1) of the same molecule?
Answer: 15.5 µM (active)

Question: What about the EC50 (Hexokinase-1) of the same molecule?
Answer: > 80 µM (inactive)

Question: What about the IC50 [8] of the same molecule?
Answer: 32.2 µM (active)

Question: And the IC50 [9]?
Answer: > 100 µM (inactive)

Question: And the IC50 (Prothrombin)?
Answer: > 100 µM (inactive)

Question: What about the IC50 (Protein Wnt-3a) of the same molecule?
Answer: 11.4 µM (active)

Question: Which results are given for `O=C(O)c1ccc(CN(c2ccccn2)S(=O)(=O)c2ccccc2)cc1`?
Answer: IC50 (Ephrin type-A receptor 4): > 100 µM (not active); AC50 (Trypsin): 16.6 µM (active); AC50 (CAAX prenyl protease 2): 22 µM (active); AC50 (CAAX prenyl protease 1): 3.92 µM (active)

Question: With `Cc1ccc(OCC(=O)Nc2ccc(Cl)cc2)c([N+](=O)[O-])n1` as the molecule, how does the EC50 [10] read?
Answer: > 50 µM (inactive)

Question: Which IC50 [11] does the source give for `CC1(c2ccccc2)CC(C)(C)N2C(=O)C(=O)c3cccc1c32` (stereo not given) here?
Answer: 21.7 µM (inactive)

Question: And the IC50 (Perilipin-1/ABHD5)?
Answer: 19 µM (inactive)

Question: For `O=c1c2ccc([N+](=O)[O-])cc2sn1-c1cc(C(F)(F)F)ccc1Cl`, which IC50 [12] is on record?
Answer: > 50 µM (inactive)

Question: And the IC50 (Phosphomannomutase 2)?
Answer: > 100 µM (inactive)

Question: And the IC50 [13]?
Answer: 0.252 µM (active)

Question: Which results are given for `Oc1ccc(C(=S)NCc2ccc(F)c(C(F)(F)F)c2)cc1`?
Answer: IC50 [14]: 30.9 µM (active); IC50 [15]: 40.9 µM (active)
